Reference: ChEMBL document CHEMBL1697821, “Development of a phospholipidosis database and predictive quantitative structure-activity relationship (QSAR) models” (Toxicol Mech Methods, 2008)

tested on: Phospholipidosis; assay: Literature-mined public compounds from Kruhlak et al phospholipidosis modelling dataset

Structure (SMILES) | Phospholipidosis
CCCCC[C@H](O)/C=C/[C@@H]1[C@H]2C/C(=C/CCCC(=O)O)O[C@H]2C[C@H]1O [EPOPROSTENOL] | Negative: based on the absence of positive reported data from WMDD
CCCCc1ncc(/C=C(\Cc2cccs2)C(=O)O)n1Cc1ccc(C(=O)O)cc1 [EPROSARTAN] | Negative: based on the absence of positive reported data from WMDD
COC(=O)CCc1ccc(OCC(O)CNC(C)C)cc1 (stereo unspecified) [ESMOLOL] | Negative: based on the absence of positive reported data from WMDD
CCC(=O)Oc1ccc2c(c1)CC[C@@H]1[C@@H]2CC[C@]2(C)[C@@H](OC(=O)CC)CC[C@@H]12 [ESTRADIOL DIPROPIONATE] | Negative: based on the absence of positive reported data from WMDD
CCCCCCCCCCC(=O)O[C@H]1CC[C@H]2[C@@H]3CCc4cc(O)ccc4[C@H]3CC[C@]12C [ESTRADIOL UNDECYLATE] | Negative: based on the absence of positive reported data from WMDD
C1CNCCN1.C[C@]12CC[C@@H]3c4ccc(OS(=O)(=O)O)cc4CC[C@H]3[C@@H]1CCC2=O [ESTROPIPATE] | Negative: based on the absence of positive reported data from WMDD
C#CC(O)(/C=C/Cl)CC (stereo unspecified) [ETHCHLORVYNOL] | Negative: based on the absence of positive reported data from WMDD
C#C[C@]1(O)CC[C@H]2[C@@H]3CCc4cc(O)ccc4[C@H]3CC[C@@]21C [ETHINYL ESTRADIOL] | Negative: based on the absence of positive reported data from WMDD
CCN(CC)C(C)CN1c2ccccc2Sc2ccccc21 (stereo unspecified) [ETHOPROPAZINE] | Negative: based on the absence of positive reported data from WMDD
CCOC(=O)C1N=C(c2ccccc2F)c2cc(Cl)ccc2NC1=O (stereo unspecified) [ETHYL LOFLAZEPATE] | Positive: strong inducer confirmed by electron microscopy
CCCN(CC)C(CC)C(=O)Nc1c(C)cccc1C (stereo unspecified) [ETIDOCAINE] | Negative: based on the absence of positive reported data from WMDD
CCc1cc2c(s1)-n1c(C)nnc1CN=C2c1ccccc1Cl [ETIZOLAM] | Negative: based on the absence of positive reported data from WMDD
CCOC(=O)c1cncn1[C@H](C)c1ccccc1 [ETOMIDATE] | Negative: based on the absence of positive reported data from WMDD
COc1cc([C@@H]2c3cc4c(cc3[C@@H](O[C@@H]3O[C@@H]5CO[C@@H](C)O[C@H]5[C@H](O)[C@H]3O)[C@H]3COC(=O)[C@H]23)OCO4)cc(OC)c1O [ETOPOSIDE] | Negative: confirmed by electron microscopy
CCOC(=O)/C=C(C)/C=C/C=C(C)/C=C/c1c(C)cc(OC)c(C)c1C [ETRETINATE] | Negative: based on the absence of positive reported data from WMDD
Cc1cc(-c2ccc(/N=N/c3ccc4c(S(=O)(=O)[O-])cc(S(=O)(=O)[O-])c(N)c4c3O)c(C)c2)ccc1/N=N/c1ccc2c(S(=O)(=O)[O-])cc(S(=O)(=O)[O-])c(N)c2c1O.[Na+].[Na+].[Na+].[Na+] [EVANS BLUE] | Negative: based on the absence of positive reported data from WMDD
CC(=O)OCC(CCn1cnc2cnc(N)nc21)COC(C)=O [FAMCICLOVIR] | Negative: based on the absence of positive reported data from WMDD
Cc1c(-c2ccccc2)n(/N=N/n2c(-c3ccccc3)c(C)[n+]3ccccc23)c2cccc[n+]12.[Br-].[Br-] [FAZADINIUM BROMIDE] | Negative: based on the absence of positive reported data from WMDD
CCNC(C)Cc1cccc(C(F)(F)F)c1 (stereo unspecified) [FENFLURAMINE] | Positive: strong inducer confirmed by electron microscopy

Structure (SMILES) | Phospholipidosis
CC(C(=O)O)c1cccc(Oc2ccccc2)c1 (stereo unspecified) [FENOPROFEN] | Negative: based on the absence of positive reported data from WMDD
CC(C)=CCC1C(=O)N(c2ccccc2)N(c2ccccc2)C1=O [FEPRAZONE] | Negative: based on the absence of positive reported data from WMDD
Cc1c(-c2ccccc2)oc2c(C(=O)OCCN3CCCCC3)cccc2c1=O [FLAVOXATE] | Negative: based on the absence of positive reported data from WMDD
O=C(NCC1CCCCN1)c1cc(OCC(F)(F)F)ccc1OCC(F)(F)F (stereo unspecified) [FLECAINIDE] | Negative: confirmed by electron microscopy
Cc1onc(-c2c(F)cccc2Cl)c1C(=O)N[C@@H]1C(=O)N2[C@@H]1SC(C)(C)[C@@H]2C(=O)O [FLOXACILLIN] | Negative: based on the absence of positive reported data from WMDD
O=c1[nH]c(=O)n([C@H]2C[C@H](O)[C@@H](CO)O2)cc1F [FLOXURIDINE] | Negative: based on the absence of positive reported data from WMDD
Nc1nc(=O)[nH]cc1F [FLUCYTOSINE] | Negative: based on the absence of positive reported data from WMDD
Nc1nc(F)nc2c1ncn2[C@@H]1O[C@H](COP(=O)(O)O)[C@@H](O)[C@@H]1O [FLUDARABINE PHOSPHATE] | Negative: based on the absence of positive reported data from WMDD
O=C(O)c1ccccc1Nc1cccc(C(F)(F)F)c1 [FLUFENAMIC ACID] | Negative: based on the absence of positive reported data from WMDD
O=c1[nH]cc(F)c(=O)[nH]1 [FLUOROURACIL] | Negative: based on the absence of positive reported data from WMDD
CNCCC(Oc1ccc(C(F)(F)F)cc1)c1ccccc1 (stereo unspecified) [FLUOXETINE] | Positive: strong inducer confirmed by electron microscopy
CCCCCCCCCC(=O)OCCN1CCN(CCCN2c3ccccc3Sc3ccc(C(F)(F)F)cc32)CC1 [FLUPHENAZINE DECANOATE] | Negative: based on the absence of positive reported data from WMDD
CCCCCCC(=O)OCCN1CCN(CCCN2c3ccccc3Sc3ccc(C(F)(F)F)cc32)CC1 [FLUPHENAZINE ENANTHATE] | Negative: based on the absence of positive reported data from WMDD
CCN(CC)CCN1C(=O)CN=C(c2ccccc2F)c2cc(Cl)ccc21 [FLURAZEPAM] | Negative: based on the absence of positive reported data from WMDD
O=C1CN2CCOC2(c2ccccc2F)c2cc(Cl)ccc2N1CCO (stereo unspecified) [FLUTAZOLAM] | Negative: based on the absence of positive reported data from WMDD
COCCCC/C(=N\OCCN)c1ccc(C(F)(F)F)cc1 [FLUVOXAMINE] | Positive: weak inducer based on presence of foamy macrophages and cytoplasmic vacuolations
Nc1nc2ncc(CNc3ccc(C(=O)N[C@@H](CCC(=O)O)C(=O)O)cc3)nc2c(=O)[nH]1 [FOLIC ACID] | Negative: based on the absence of positive reported data from WMDD
CN(CC(=O)N1CCOCC1)Cc1c(Cl)cccc1NC(=O)c1ccccc1 [FOMINOBEN] | Negative: based on the absence of positive reported data from WMDD
CCC(=O)O[C@@H](O[P@](=O)(CCCCc1ccccc1)CC(=O)N1C[C@H](C2CCCCC2)C[C@H]1C(=O)O)C(C)C [FOSINOPRIL] | Negative: based on the absence of positive reported data from WMDD

Structure (SMILES) | Phospholipidosis
NC[C@@H]1O[C@H](O[C@H]2[C@@H](O)[C@H](O[C@@H]3[C@@H](O)[C@H](N)C[C@H](N)[C@H]3O[C@H]3O[C@H](CN)[C@@H](O)[C@H](O)[C@H]3N)O[C@@H]2CO)[C@H](N)[C@@H](O)[C@@H]1O [FRAMYCETIN] | Negative: based on the absence of positive reported data from WMDD
NS(=O)(=O)c1cc(C(=O)O)c(NCc2ccco2)cc1Cl [FUROSEMIDE] | Negative: confirmed by electron microscopy
CC[N+](CC)(CC)CCOc1cccc(OCC[N+](CC)(CC)CC)c1OCC[N+](CC)(CC)CC.[I-].[I-].[I-] [GALLAMINE TRIETHIODIDE] | Negative: based on the absence of positive reported data from WMDD
Cc1ccc(C)c(OCCCC(C)(C)C(=O)O)c1 [GEMFIBROZIL] | Negative: confirmed by electron microscopy
CN[C@@H]1[C@@H](O)[C@@H](O[C@@H]2[C@@H](O)[C@H](O[C@H]3O[C@H]([C@@H](C)NC)CC[C@H]3N)[C@@H](N)C[C@H]2N)OC[C@]1(C)O [GENTAMICIN C1] | Positive: strong inducer confirmed by electron microscopy
CN[C@@H]1[C@@H](O)[C@@H](O[C@@H]2[C@@H](O)[C@H](O[C@H]3O[C@H](C(C)N)CC[C@H]3N)[C@@H](N)C[C@H]2N)OC[C@]1(C)O (stereo partly specified) [GENTAMICIN C2] | Positive: strong inducer confirmed by electron microscopy
Cc1ccc(S(=O)(=O)NC(=O)NN2CC3CCCC3C2)cc1 (stereo unspecified) [GLICLAZIDE] | Negative: based on the absence of positive reported data from WMDD
OCC(O)CO [GLYCERIN] | Negative: based on the absence of positive reported data from WMDD
NCC(=O)O [GLYCINE] | Negative: based on the absence of positive reported data from WMDD
COCCOc1cnc(NS(=O)(=O)c2ccccc2)nc1 [GLYMIDINE] | Negative: based on the absence of positive reported data from WMDD
COC1=CC(=O)C[C@@H](C)[C@]12Oc1c(Cl)c(OC)cc(OC)c1C2=O [GRISEOFULVIN] | Negative: based on the absence of positive reported data from WMDD
CCC(C)(C)N/C(N)=N/C#N [GUANCYDINE] | Negative: based on the absence of positive reported data from WMDD
N=C(N)NCCN1CCCCCCC1 [GUANETHIDINE] | Negative: based on the absence of positive reported data from WMDD
O=C1CN=C(c2ccccc2)c2cc(Cl)ccc2N1CC(F)(F)F [HALAZEPAM] | Negative: based on the absence of positive reported data from WMDD
CCCCN(CCCC)CCC(O)c1cc2c(Cl)cc(Cl)cc2c2cc(C(F)(F)F)ccc12 (stereo unspecified) [HALOFANTRINE] | Negative: based on the absence of positive reported data from WMDD
O=C(CCCN1CCC(O)(c2ccc(Cl)cc2)CC1)c1ccc(F)cc1 [HALOPERIDOL] | Positive: strong inducer confirmed by electron microscopy
CC1(C)S[C@@H]2[C@H](N3C(=O)[C@@H](c4ccccc4)NC3(C)C)C(=O)N2[C@H]1C(=O)O [HETACILLIN] | Negative: based on the absence of positive reported data from WMDD
C[N+]1(C)CCN(CC(O)(c2ccccc2)C2CCCCC2)CC1 (stereo unspecified) [HEXOCYCLIUM] | Negative: based on the absence of positive reported data from WMDD
